# Measured values reported in patent publication US6472391B2, “Nitrogen-containing heterocyclic compounds” (Millennium Pharmaceuticals, Inc., priority 1996, dated 2002).
row,SMILES,melting point [°C]
1,"COc1cc2ncnc(N3CCN(C(=S)NCc4cccc5ccccc45)CC3)c2cc1OC [Compound 132, 4-(6,7-Dimethoxy-4-quinazolinyl)-N-(1-naphthylmethyl)-1-piperazinethiocarboxamide]",164 to 165
2,"COc1cc2ncnc(N3CCN(C(=O)Nc4cc(Cl)cc(Cl)c4)CC3)c2cc1OC [Compound 55, N-(3,5-Dichlorophenyl)-4-(6,7-dimethoxy-4-quinazolinyl)-1-piperazinecarboxamide]",139 to 140
3,Cl.Cl.S=C(NCc1cccnc1)N1CCN(c2ccnc3ccc(Cl)cc23)CC1,162 to 164
4,"COc1cc2ncnc(N3CCN(C(=O)Nc4cc(C)cc(C)c4)CC3)c2cc1OC [Compound 29, 4-(6,7-Dimethoxy-4-quinazolinyl)-N-(3,5-dimethylphenyl)-1-piperazinecarboxamide]",223 to 226
5,"COc1cc2ncnc(N3CCN(C(=S)Nc4cccc(NC(C)=O)c4)CC3)c2cc1OC [Compound 226, N-(3-Acetamidophenyl)-4-(6,7-dimethoxy-4-quinazolinyl)-1-piperazinethiocarboxamide]",207 to 208
6,"COc1cc2ncnc(N3CCN(C(=O)NS(=O)(=O)c4ccc(Cl)cc4)CC3)c2cc1OC [Compound 43, N-(4-Chlorobenzenesulfonyl)-4-(6,7-dimethoxy-4quinazolinyl)-1-piperazinecarboxamide]",228 to 234
7,"COc1cc2ncnc(N3CCN(C(=S)NCc4ncc(C(F)(F)F)cc4Cl)CC3)c2cc1OC [Compound 276, N-(3-Chloro-5-trifluoromethyl-2-picolyl)-4-(6,7-dimethoxy-4-quinazolinyl)-1-piperazinethiocarboxamide]",182 to 183
8,"COc1cc2ncnc(N3CCN(C(=S)Nc4ccc(C(C)=O)cc4)CC3)c2cc1OC [Compound 242, N-(4-Acetylphenyl)-4-(6,7-dimethoxy-4-quinazolinyl)-1-piperazinethiocarboxamide]",256 to 257
9,"COc1cc2ncnc(N3CCCN(C(=S)NCc4ccccc4)CC3)c2cc1OC [Compound 436, N-Benzyl-4-(6,7-dimethoxy-4-quinazolinyl)-1-homopiperazinethiocarboxamide]",86 to 88
10,"COc1cc2ncnc(N3CCN(C(=S)NCC4(c5ccc(Cl)cc5)CC4)CC3)c2cc1OC [Compound 446, N-[1-(4-Chlorophenyl)cyclopropylmethyl]-4-(6,7-dimethoxy-4-quinazolinyl)-1-piperazinethiocarboxamide]",108 to 111
11,"COc1cc2ncnc(N3CCN(C(=S)Nc4ccc(Br)cc4)CC3)c2cc1OC [Compound 182, N-(4-Bromophenyl)-4-(6,7-dimethoxy-4-quinazolinyl)-1-piperazinethiocarboxamide]",170 to 171
12,"COc1cc2ncnc(N3CCN(C(=S)Nc4cccc(Cl)c4)CC3)c2cc1OC [Compound 175, N-(3-Chlorophenyl)-4-(6,7-dimethoxy-4-quinazolinyl)-1-piperazinethiocarboxamide]",222 to 224
13,"COc1cc2ncnc(N3CCN(C(=O)NCc4ccc(Br)cc4)CC3)c2cc1OC [Compound 184, N-(4-Bromobenzyl)-4-(6,7-dimethoxy-4-quinazolinyl)-1-piperazinecarboxamide]",211 to 212
14,"COc1cc2ncnc(N3CCN(C(=O)NCCc4ccc(Cl)cc4)CC3)c2cc1OC [Compound 119, N-[2-(4-Chlorophenyl)ethyl]-4-(6,7-dimethoxy-4-quinazolinyl)-1-piperazinecarboxamide]",177 to 178
15,"COc1cc2ncnc(N3CCN(C(=S)Nc4cccc(C(C)C)c4)CC3)c2cc1OC [Compound 151, 4-(6,7-Dimethoxy-4-quinazolinyl)-N-(3-isopropylphenyl)-1-piperazinethiocarboxamide]",169 to 171
16,"COc1cc2ncnc(N3CCN(C(=O)Nc4ccc(Cl)cc4Cl)CC3)c2cc1OC [Compound 53, N-(2,4-Dichlorophenyl)-4-(6,7-dimethoxy-4-quinazolinyl)-1-piperazinecarboxamide]",166 to 167
17,"S=C(NCc1ccccc1)N1CCN(c2ccnc3cc(Cl)ccc23)CC1 [Compound 405, N-Benzyl-4-(7-chloro-4-quinolyl)-1-piperazinethiocarboxamide]",84 to 86
18,"Cc1ccc2ncnc(N3CCN(C(=O)Nc4ccc([N+](=O)[O-])cc4)CC3)c2c1 [Compound 293, 4-(6-Methyl-4-quinazolinyl)-N-(4-nitrophenyl)-1-piperazinecarboxamide]",126 to 129
19,"COc1cc2ncnc(N3CCN(C(=S)Nc4ccc(Cc5ccncc5)cc4)CC3)c2cc1OC [Compound 282, 4-(6,7-Dimethoxy-4-quinazolinyl)-N-[4-(4-picolyl)phenyl]-1-piperazinethiocarboxamide]",198 to 200
20,"COc1cc2ncnc(N3CCN(C(=S)NCc4ccccc4Cl)CC3)c2cc1OC [Compound 176, N-(2-Chlorobenzyl)-4-(6,7-dimethoxy-4-quinazolinyl)-1-piperazinethiocarboxamide]",175 to 176
21,"COc1cc2ncnc(N3CCN(C(=O)Nc4ccsc4)CC3)c2cc1OC [Compound 257, 4-(6,7-Dimethoxy-4-quinazolinyl)-N-(3-thienyl)-1-piperazinecarboxamide]",239 to 241
22,"COc1cc2ncnc(N3CCN(C(=S)NCCc4ccccc4)CC3)c2cc1OC [Compound 6, 4-(6,7-Dimethoxy-4-quinazolinyl)-N-(2-phenylethyl)-1-piperazinethiocarboxamide]",76 to 80
23,"COc1cc2ncnc(N3CCN(C(=O)Nc4ccc(Cl)cc4C(F)(F)F)CC3)c2cc1OC [Compound 48, N-[4-Chloro-2-(trifluoromethyl)phenyl]-4-(6,7-dimethoxy-4-quinazolinyl)-1-piperazinecarboxamide]",189 to 190
24,"Cn1c(=O)n(C)c2cc3c(N4CCN(C(=O)Nc5ccc([N+](=O)[O-])cc5)CC4)ncnc3cc21 [Compound 386, 4-(1,3-Dihydro-1,3-dimethyl-2-oxo-2H-imidazo[4,5-g]quinazolin-8-yl)-N-(4-nitrophenyl)-1-piperazinecarboxamide]",299 to 300
25,"COc1cc2ncnc(N3CCN(C(=O)NCc4ccc(N(C)C)cc4)CC3)c2cc1OC [Compound 223, 4-(6,7-Dimethoxy-4-quinazolinyl)-N-(4-dimethylaminobenzyl)-1-piperazinecarboxamide]",188 to 190
26,"COc1cc2ncnc(N3CCN(C(=S)NC4CCOC4=O)CC3)c2cc1OC (stereo not drawn) [Compound 279, 4-(6,7-Dimethoxy-4-quinazolinyl)-N-(2,3,4,5-tetrahydro-2-oxo-3-furyl)-1-piperazinethiocarboxamide]",147 to 148

# Results, then the compound that gave them:
row,melting point [°C],SMILES
1,218 to 220,"CCCOc1ccc(NC(=O)N2CCN(c3ncnc4cc(OC)c(OC)cc34)CC2)cc1 [Compound 201, 4-(6,7-Dimethoxy-4-quinazolinyl)-N-(4-propoxyphenyl)-1-piperazinecarboxamide]"
2,178 to 179,"CCOc1cc2c(N3CCN(C(=O)Nc4ccc(C#N)cc4)CC3)ncnc2cc1OC [Compound 347, N-(4-Cyanophenyl)-4-(6-ethoxy-7-methoxy-4-quinazolinyl)-1-piperazinecarboxamide]"
3,109 to 110,"COc1cc(OC)c2ncnc(N3CCN(C(=O)Nc4ccc(Oc5ccccc5)cc4)CC3)c2c1 [Compound 381, 4-(6,8-Dimethoxy-4-quinazolinyl)-N-(4-phenoxyphenyl)-1-piperazinecarboxamide]"
4,213 to 215,"COc1cc2ncnc(N3CCN(C(=O)Nc4ccc(CN(C)C)cc4)CC3)c2cc1OC [Compound 227, 4-(6,7-Dimethoxy-4-quinazolinyl)-N-[4-(N,N-dimethylaminomethyl)phenyl]-1-piperazinecarboxamide]"
5,197 to 198,"CCOc1cc2ncnc(N3CCN(C(=O)Nc4ccc(Oc5ccccc5)cc4)CC3)c2cc1F [Compound 332, 4-(7-Ethoxy-6-fluoro-4-quinazolinyl)-N-(4-phenoxyphenyl)-1-piperazinecarboxamide]"
6,83 to 84,"COc1cc2c(N3CCN(C(=O)Nc4ccc(Oc5ccccc5)cc4)CC3)ncnc2c(OC)c1OC [Compound 108, N-(4-Phenoxyphenyl)-4-(6,7,8-trimethoxy-4-quinazolinyl)-1-piperazinecarboxamide]"
7,100 to 101,"O=C(Nc1ccc(Oc2ccccc2)cc1)N1CCN(c2nnc(Cc3ccccc3)c3ccccc23)CC1 [Compound 418, 4-(4-Benzyl-1-phthalazinyl)-N-(4-phenoxyphenyl)-1-piperazinecarboxamide]"
8,220 to 222,"COc1cc2ncnc(N3CCN(C(=O)Nc4ccc(C(C)=O)cc4)CC3)c2cc1OC [Compound 87, N-(4-acetylphenyl)-4-(6,7-dimethoxy-4-quinazolinyl)-1-piperazinecarboxamide]"
9,196 to 197,"O=C(Nc1ccc(Oc2ccccc2)cc1)N1CCN(c2nnc(Cl)c3ccccc23)CC1 [Compound 416, 4-(4-Chloro-1-phthalazinyl)-N-(4-Phenoxyphenyl)-1-piperazinecarboxamide]"
10,208 to 209,"CCSc1ccc(NC(=O)N2CCN(c3ncnc4cc(OC)c(OC)cc34)CC2)cc1 [Compound 219, 4-(6,7-Dimethoxy-4-quinazolinyl)-N-(4-ethylthiophenyl)-1-piperazinecarboxamide]"
11,210 to 212,"CCOc1cc2ncnc(N3CCN(C(=O)Nc4ccc(Br)cc4)CC3)c2cc1OC [Compound 336, N-(4-Bromophenyl)-4-(7-ethoxy-6-methoxy-4-quinazolinyl)-1-piperazinecarboxamide]"
12,197 to 199,"COc1cc2c(N3CCN(C(=O)Nc4ccc([N+](=O)[O-])cc4)CC3)ncnc2c(OC)c1OC [Compound 107, N-(4-Nitrophenyl)-4-(6,7,8-trimethoxy-4-quinazolinyl)-1-piperazinecarboxamide]"
13,102 to 104,"COc1cccc2c(N3CCN(C(=O)Nc4ccc(C(C)C)cc4)CC3)ncnc12 [Compound 326, N-(4-Isopropylphenyl)-4-(8-methoxy-4-quinazolinyl)-1-piperazinecarboxamide]"
